According to ChEMBL document CHEMBL1201862, “PubChem BioAssay data set” (2004):
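Values below derive from 48-hour exposures of cells grown in 96-well plates, with endpoints linearly interpolated between the two concentrations bracketing the appropriate inhibition level. At the GI50, growth is halved.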 The source made the active and inactive calls. Rule as the data show it: active = GI50 up to about 1.1 µM and inactive = higher.

Tests used:
Assay in all cases: NCI anticancer screen, dose series, 48 h
786-0 = tested on: 786-0
A498 = tested on: A498
A549 = tested on: A549
ACHN = tested on: ACHN
CAKI-1 = tested on: CAKI-1
CCRF-CEM = tested on: CCRF-CEM
COLO 205 = tested on: COLO 205
DLD-1 = tested on: DLD-1
EKVX = tested on: EKVX
HCC 2998 = tested on: HCC 2998
HCT-116 = tested on: HCT-116
HCT-15 = tested on: HCT-15
HL-60 = tested on: HL-60
HOP-92 = tested on: HOP-92
HT-29 = tested on: HT-29
IGROV-1 = tested on: IGROV-1
K562 = tested on: K562
KM-20L2 = tested on: KM-20L2
KM12 = tested on: KM12
LOX IMVI = tested on: LOX IMVI
LXFL 529 = tested on: LXFL 529
M14 = tested on: M14
M19-MEL = tested on: M19-MEL
MOLT-4 = tested on: MOLT-4
Malme-3M = tested on: Malme-3M
NCI-H23 = tested on: NCI-H23
NCI-H460 = tested on: NCI-H460
NCI-H522 = tested on: NCI-H522
OVCAR-3 = tested on: OVCAR-3
OVCAR-4 = tested on: OVCAR-4
OVCAR-5 = tested on: OVCAR-5
OVCAR-8 = tested on: OVCAR-8
RPMI-8226 = tested on: RPMI-8226
RXF 393 = tested on: RXF 393
SF-268 = tested on: SF-268
SF-295 = tested on: SF-295
SF-539 = tested on: SF-539
SK-MEL-28 = tested on: SK-MEL-28
SK-MEL-2 = tested on: SK-MEL-2
SK-MEL-5 = tested on: SK-MEL-5
SK-OV-3 = tested on: SK-OV-3
SN12C = tested on: SN12C
SNB-19 = tested on: SNB-19
SNB-78 = tested on: SNB-78
SW-620 = tested on: SW-620
TK-10 = tested on: TK-10
U-251 = tested on: U-251
UACC-257 = tested on: UACC-257
UACC-62 = tested on: UACC-62
UO-31 = tested on: UO-31
XF498 = tested on: XF498
DMS-273 = tested on: DMS-273
HOP-62 = tested on: HOP-62
NCI-H226 = tested on: NCI-H226
SNB-75 = tested on: SNB-75
SR = tested on: SR

Question: With `COc1cc(/C=C2/C(=O)N(C(=O)c3ccc(Cl)cc3)N=C2C)cc(OC)c1OC` as the molecule, how does the GI50 (786-0) read?
Answer: > 100 µM (inactive)

Question: And the GI50 (A498)?
Answer: > 100 µM (inactive)

Question: And the GI50 (A549)?
Answer: > 100 µM (inactive)

Question: And the GI50 (ACHN)?
Answer: > 100 µM (inactive)

Question: What about the GI50 (CAKI-1) of the same molecule?
Answer: > 100 µM (inactive)

Question: And the GI50 (CCRF-CEM)?
Answer: > 100 µM (inactive)

Question: What about the GI50 (COLO 205) of the same molecule?
Answer: > 100 µM (inactive)

Question: What about the GI50 (DLD-1) of the same molecule?
Answer: > 100 µM (inactive)

Question: What about the GI50 (EKVX) of the same molecule?
Answer: > 100 µM (inactive)

Question: What about the GI50 (HCC 2998) of the same molecule?
Answer: > 100 µM (inactive)

Question: What about the GI50 (HCT-116) of the same molecule?
Answer: > 100 µM (inactive)

Question: And the GI50 (HCT-15)?
Answer: > 100 µM

Question: What about the GI50 (HL-60) of the same molecule?
Answer: > 100 µM (inactive)

Question: And the GI50 (HOP-92)?
Answer: > 100 µM (inactive)

Question: What about the GI50 (HT-29) of the same molecule?
Answer: > 100 µM (inactive)

Question: And the GI50 (IGROV-1)?
Answer: > 100 µM (inactive)

Question: What about the GI50 (K562) of the same molecule?
Answer: > 100 µM (inactive)

Question: And the GI50 (KM-20L2)?
Answer: > 100 µM (inactive)

Question: And the GI50 (KM12)?
Answer: > 100 µM (inactive)

Question: What about the GI50 (LOX IMVI) of the same molecule?
Answer: > 100 µM (inactive)

Question: And the GI50 (LXFL 529)?
Answer: > 100 µM (inactive)

Question: What about the GI50 (M14) of the same molecule?
Answer: > 100 µM (inactive)

Question: And the GI50 (M19-MEL)?
Answer: > 100 µM (inactive)

Question: What about the GI50 (MOLT-4) of the same molecule?
Answer: > 100 µM (inactive)

Question: And the GI50 (Malme-3M)?
Answer: > 100 µM (inactive)

Question: And the GI50 (NCI-H23)?
Answer: > 100 µM (inactive)

Question: What about the GI50 (NCI-H460) of the same molecule?
Answer: > 100 µM (inactive)

Question: What about the GI50 (NCI-H522) of the same molecule?
Answer: > 100 µM (inactive)

Question: And the GI50 (OVCAR-3)?
Answer: > 100 µM (inactive)

Question: What about the GI50 (OVCAR-4) of the same molecule?
Answer: > 100 µM (inactive)

Question: And the GI50 (OVCAR-5)?
Answer: > 100 µM (inactive)

Question: And the GI50 (OVCAR-8)?
Answer: > 100 µM (inactive)

Question: What about the GI50 (RPMI-8226) of the same molecule?
Answer: > 100 µM (inactive)

Question: What about the GI50 (RXF 393) of the same molecule?
Answer: > 100 µM (inactive)

Question: What about the GI50 (SF-268) of the same molecule?
Answer: > 100 µM (inactive)

Question: What about the GI50 (SF-295) of the same molecule?
Answer: > 100 µM (inactive)

Question: And the GI50 (SF-539)?
Answer: > 100 µM (inactive)

Question: And the GI50 (SK-MEL-28)?
Answer: > 100 µM (inactive)

Question: And the GI50 (SK-MEL-2)?
Answer: > 100 µM (inactive)

Question: What about the GI50 (SK-MEL-5) of the same molecule?
Answer: > 100 µM (inactive)

Question: What about the GI50 (SK-OV-3) of the same molecule?
Answer: > 100 µM (inactive)

Question: What about the GI50 (SN12C) of the same molecule?
Answer: > 100 µM (inactive)

Question: And the GI50 (SNB-19)?
Answer: > 100 µM (inactive)

Question: What about the GI50 (SNB-78) of the same molecule?
Answer: > 100 µM (inactive)

Question: And the GI50 (SW-620)?
Answer: > 100 µM (inactive)

Question: What about the GI50 (TK-10) of the same molecule?
Answer: > 100 µM (inactive)

Question: And the GI50 (U-251)?
Answer: > 100 µM (inactive)

Question: And the GI50 (UACC-257)?
Answer: > 100 µM (inactive)

Question: And the GI50 (UACC-62)?
Answer: > 100 µM (inactive)

Question: What about the GI50 (UO-31) of the same molecule?
Answer: > 100 µM (inactive)

Question: What about the GI50 (XF498) of the same molecule?
Answer: > 100 µM (inactive)

Question: What does the source list for `COc1ccc(S(=O)(=O)NNS(C)(=O)=O)cc1OC`?
Answer: GI50 (786-0): > 100 µM (inactive); GI50 (A498): > 100 µM (inactive); GI50 (A549): > 100 µM (inactive); GI50 (ACHN): > 100 µM (inactive); GI50 (CAKI-1): > 100 µM (inactive); GI50 (CCRF-CEM): > 100 µM (inactive); GI50 (COLO 205): > 100 µM (inactive); GI50 (DLD-1): > 100 µM (inactive); GI50 (DMS-273): > 100 µM (inactive); GI50 (EKVX): > 100 µM (inactive); GI50 (HCC 2998): > 100 µM (inactive); GI50 (HCT-15): > 100 µM; GI50 (HL-60): > 100 µM (inactive); GI50 (HOP-62): > 100 µM (inactive); GI50 (HT-29): > 100 µM (inactive); GI50 (IGROV-1): > 100 µM (inactive); GI50 (K562): > 100 µM (inactive); GI50 (KM-20L2): > 100 µM (inactive); GI50 (KM12): > 100 µM (inactive); GI50 (LOX IMVI): > 100 µM (inactive); GI50 (LXFL 529): > 100 µM (inactive); GI50 (M14): > 100 µM (inactive); GI50 (M19-MEL): > 100 µM (inactive); GI50 (MOLT-4): > 100 µM (inactive); GI50 (Malme-3M): > 100 µM (inactive); GI50 (NCI-H226): > 100 µM (inactive); GI50 (NCI-H23): > 100 µM (inactive); GI50 (NCI-H460): > 100 µM (inactive); GI50 (NCI-H522): > 100 µM (inactive); GI50 (OVCAR-4): > 100 µM (inactive); GI50 (OVCAR-8): > 100 µM (inactive); GI50 (RPMI-8226): > 100 µM (inactive); GI50 (RXF 393): 31.3 µM (inactive); GI50 (SF-268): 79.4 µM (inactive); GI50 (SF-295): > 100 µM (inactive); GI50 (SF-539): > 100 µM (inactive); GI50 (SK-MEL-2): > 100 µM (inactive); GI50 (SK-MEL-5): > 100 µM (inactive); GI50 (SN12C): > 100 µM (inactive); GI50 (SNB-19): > 100 µM (inactive); GI50 (SNB-75): > 100 µM (inactive); GI50 (SR): > 100 µM (inactive); GI50 (SW-620): > 100 µM (inactive); GI50 (TK-10): > 100 µM (inactive); GI50 (U-251): > 100 µM (inactive); GI50 (UACC-257): > 100 µM (inactive); GI50 (UACC-62): > 100 µM (inactive); GI50 (UO-31): > 100 µM (inactive); GI50 (XF498): > 100 µM (inactive)
